In patent US8063208B2, “Crystalline forms of (3R,4R)-4-amino-1-[[4-[(3-methoxyphenyl)amino]pyrrolo[2,1-f][1,2,4]triazin-5-yl]methyl]piperidin-3-ol” (Bristol-Myers Squibb Company, priority 2006, dated 2011):

Assays:
HER1 = HER1 (Homo sapiens, UniProt P00533); test: HER1 tyrosine kinase inhibition; assay type: biochemical
VEGFR2 = VEGFR2 (Homo sapiens, UniProt P35968); test: VEGFR2 inhibition; assay type: biochemical
various tumor cell lines = test: Antiproliferative activity in tumor cell lines; assay type: cell-based
HER2 = HER2 (Homo sapiens, UniProt P04626); test: HER2 tyrosine kinase inhibition; assay type: biochemical
[1] = system: HER2 and HER1 driven tumor xenograft models; test: Anti-tumor efficacy in tumor xenograft models; assay type: in vivo
HER4 = HER4 (Homo sapiens, UniProt Q15303); test: HER4 tyrosine kinase inhibition; assay type: biochemical
[2] = Form conversion on heating (melt/recrystallization); assay type: physicochemical; settings: melts at about 137° C.
Method: Differential scanning calorimetry (DSC) experiments were performed in a TA Instruments™ model Q1000 or 2920. The sample (about 2-6 mg) was weighed in an aluminum pan and recorded accurately recorded to a hundredth of a milligram, and transferred to the DSC. The instrument was purged with nitrogen gas at 50 mL/min. Data were collected between room temperature and 300° C. at 10° C./min heating rate. The plot was made with the endothermic peaks pointing down.

[3] = Relative thermodynamic stability of crystalline forms; assay type: physicochemical; settings: temperatures from room temperature to 50° C.
[4] = Slurry conversion of mixtures of forms; assay type: physicochemical; settings: slurried mixtures of N-1 and N-2 convert to Form N-2

Sequence of HER4 (Q15303 26-1308): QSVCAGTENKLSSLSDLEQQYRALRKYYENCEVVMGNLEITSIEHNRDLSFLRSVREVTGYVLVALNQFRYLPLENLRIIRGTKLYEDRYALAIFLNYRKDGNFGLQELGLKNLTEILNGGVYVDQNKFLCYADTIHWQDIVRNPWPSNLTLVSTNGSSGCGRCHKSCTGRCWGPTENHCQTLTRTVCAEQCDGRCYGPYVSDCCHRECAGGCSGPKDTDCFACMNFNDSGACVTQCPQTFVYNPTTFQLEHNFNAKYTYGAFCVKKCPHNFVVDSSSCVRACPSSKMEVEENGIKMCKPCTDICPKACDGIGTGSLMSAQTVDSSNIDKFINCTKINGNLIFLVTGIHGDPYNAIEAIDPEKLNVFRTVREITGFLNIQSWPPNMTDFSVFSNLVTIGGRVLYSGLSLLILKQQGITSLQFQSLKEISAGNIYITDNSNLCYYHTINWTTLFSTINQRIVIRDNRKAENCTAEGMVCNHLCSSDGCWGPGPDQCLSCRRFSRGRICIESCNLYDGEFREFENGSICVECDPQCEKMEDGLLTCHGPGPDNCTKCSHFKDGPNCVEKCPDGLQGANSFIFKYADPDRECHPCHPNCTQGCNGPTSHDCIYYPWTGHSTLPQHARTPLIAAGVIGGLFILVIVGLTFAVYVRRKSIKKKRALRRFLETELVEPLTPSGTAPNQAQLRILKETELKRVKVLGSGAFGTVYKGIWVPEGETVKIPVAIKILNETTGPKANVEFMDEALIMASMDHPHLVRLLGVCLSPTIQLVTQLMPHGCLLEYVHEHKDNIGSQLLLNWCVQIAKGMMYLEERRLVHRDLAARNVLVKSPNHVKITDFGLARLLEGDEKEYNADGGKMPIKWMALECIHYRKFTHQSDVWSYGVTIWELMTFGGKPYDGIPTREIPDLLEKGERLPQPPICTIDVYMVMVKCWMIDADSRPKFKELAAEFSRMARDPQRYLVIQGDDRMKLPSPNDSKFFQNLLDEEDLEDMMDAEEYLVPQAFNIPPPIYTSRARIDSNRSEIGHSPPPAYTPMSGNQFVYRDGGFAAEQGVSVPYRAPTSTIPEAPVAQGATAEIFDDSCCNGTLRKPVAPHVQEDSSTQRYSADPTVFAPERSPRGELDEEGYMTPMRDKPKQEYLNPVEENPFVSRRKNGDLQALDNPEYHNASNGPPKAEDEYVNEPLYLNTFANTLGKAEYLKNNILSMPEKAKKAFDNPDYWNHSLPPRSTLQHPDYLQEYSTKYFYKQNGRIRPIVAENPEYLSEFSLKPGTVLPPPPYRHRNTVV
Sequence of HER1 (P00533 25-1210): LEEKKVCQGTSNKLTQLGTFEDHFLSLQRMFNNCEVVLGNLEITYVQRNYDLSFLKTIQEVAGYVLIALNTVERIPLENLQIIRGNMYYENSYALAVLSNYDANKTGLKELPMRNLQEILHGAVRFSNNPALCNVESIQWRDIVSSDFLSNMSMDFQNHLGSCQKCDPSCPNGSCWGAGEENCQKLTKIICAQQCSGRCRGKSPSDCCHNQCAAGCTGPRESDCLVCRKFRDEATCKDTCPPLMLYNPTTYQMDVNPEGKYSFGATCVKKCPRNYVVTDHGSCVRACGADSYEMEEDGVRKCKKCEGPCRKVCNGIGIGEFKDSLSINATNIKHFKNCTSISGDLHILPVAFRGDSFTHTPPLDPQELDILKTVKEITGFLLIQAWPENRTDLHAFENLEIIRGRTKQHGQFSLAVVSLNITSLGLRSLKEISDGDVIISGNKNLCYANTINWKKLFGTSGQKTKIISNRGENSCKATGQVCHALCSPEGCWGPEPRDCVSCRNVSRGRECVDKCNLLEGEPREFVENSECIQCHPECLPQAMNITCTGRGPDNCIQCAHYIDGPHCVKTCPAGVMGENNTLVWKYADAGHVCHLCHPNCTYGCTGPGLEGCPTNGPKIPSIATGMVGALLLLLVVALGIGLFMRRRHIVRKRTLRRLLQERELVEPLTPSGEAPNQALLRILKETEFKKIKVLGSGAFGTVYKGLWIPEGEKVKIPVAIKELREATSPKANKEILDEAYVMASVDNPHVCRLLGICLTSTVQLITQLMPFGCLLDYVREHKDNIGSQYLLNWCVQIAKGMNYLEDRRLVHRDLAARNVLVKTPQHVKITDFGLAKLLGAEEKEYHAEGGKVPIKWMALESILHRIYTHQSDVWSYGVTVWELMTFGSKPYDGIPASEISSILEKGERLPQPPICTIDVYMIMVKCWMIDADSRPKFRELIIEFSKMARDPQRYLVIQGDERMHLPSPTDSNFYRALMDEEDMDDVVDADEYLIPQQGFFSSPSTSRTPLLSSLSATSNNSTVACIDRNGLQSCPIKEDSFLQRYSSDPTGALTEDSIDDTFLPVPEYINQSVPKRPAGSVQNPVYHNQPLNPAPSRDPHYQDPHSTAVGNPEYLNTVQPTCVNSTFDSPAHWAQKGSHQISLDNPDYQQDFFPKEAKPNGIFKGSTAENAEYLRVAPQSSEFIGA
Sequence of VEGFR2 (P35968 20-1356, species assumed): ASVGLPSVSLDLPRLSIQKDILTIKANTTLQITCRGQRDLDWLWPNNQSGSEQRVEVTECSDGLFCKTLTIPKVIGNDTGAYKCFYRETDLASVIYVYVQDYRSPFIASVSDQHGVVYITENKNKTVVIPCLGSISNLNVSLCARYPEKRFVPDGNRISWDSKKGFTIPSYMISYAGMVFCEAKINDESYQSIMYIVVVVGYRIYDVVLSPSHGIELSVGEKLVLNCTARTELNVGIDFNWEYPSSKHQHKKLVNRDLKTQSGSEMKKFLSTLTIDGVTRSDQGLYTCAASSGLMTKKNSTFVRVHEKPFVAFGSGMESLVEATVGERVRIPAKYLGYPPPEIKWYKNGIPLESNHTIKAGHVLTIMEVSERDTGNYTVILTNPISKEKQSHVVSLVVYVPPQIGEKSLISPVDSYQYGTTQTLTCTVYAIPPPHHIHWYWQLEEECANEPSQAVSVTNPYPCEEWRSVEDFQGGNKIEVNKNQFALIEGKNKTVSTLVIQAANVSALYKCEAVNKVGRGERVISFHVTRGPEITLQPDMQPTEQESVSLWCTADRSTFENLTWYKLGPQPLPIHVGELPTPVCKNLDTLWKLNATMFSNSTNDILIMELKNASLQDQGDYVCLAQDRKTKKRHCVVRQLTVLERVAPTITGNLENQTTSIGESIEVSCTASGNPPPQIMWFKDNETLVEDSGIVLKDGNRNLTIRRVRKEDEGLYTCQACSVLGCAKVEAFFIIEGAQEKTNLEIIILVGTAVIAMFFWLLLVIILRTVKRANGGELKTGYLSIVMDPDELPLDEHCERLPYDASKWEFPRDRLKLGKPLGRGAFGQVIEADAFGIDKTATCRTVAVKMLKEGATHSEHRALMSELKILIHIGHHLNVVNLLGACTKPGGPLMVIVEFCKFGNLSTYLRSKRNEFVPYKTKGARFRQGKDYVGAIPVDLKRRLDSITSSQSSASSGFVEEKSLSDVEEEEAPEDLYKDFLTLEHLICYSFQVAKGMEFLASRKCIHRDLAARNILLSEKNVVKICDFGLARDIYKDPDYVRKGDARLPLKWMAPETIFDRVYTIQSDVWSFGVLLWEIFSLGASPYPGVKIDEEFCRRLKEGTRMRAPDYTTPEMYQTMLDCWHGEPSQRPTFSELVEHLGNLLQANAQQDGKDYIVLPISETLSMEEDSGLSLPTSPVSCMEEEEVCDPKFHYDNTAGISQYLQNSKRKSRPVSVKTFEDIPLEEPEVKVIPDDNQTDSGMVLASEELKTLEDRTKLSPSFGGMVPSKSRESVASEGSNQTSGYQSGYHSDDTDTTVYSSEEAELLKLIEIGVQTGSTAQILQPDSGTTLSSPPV
Sequence of HER2 (P04626 23-1255): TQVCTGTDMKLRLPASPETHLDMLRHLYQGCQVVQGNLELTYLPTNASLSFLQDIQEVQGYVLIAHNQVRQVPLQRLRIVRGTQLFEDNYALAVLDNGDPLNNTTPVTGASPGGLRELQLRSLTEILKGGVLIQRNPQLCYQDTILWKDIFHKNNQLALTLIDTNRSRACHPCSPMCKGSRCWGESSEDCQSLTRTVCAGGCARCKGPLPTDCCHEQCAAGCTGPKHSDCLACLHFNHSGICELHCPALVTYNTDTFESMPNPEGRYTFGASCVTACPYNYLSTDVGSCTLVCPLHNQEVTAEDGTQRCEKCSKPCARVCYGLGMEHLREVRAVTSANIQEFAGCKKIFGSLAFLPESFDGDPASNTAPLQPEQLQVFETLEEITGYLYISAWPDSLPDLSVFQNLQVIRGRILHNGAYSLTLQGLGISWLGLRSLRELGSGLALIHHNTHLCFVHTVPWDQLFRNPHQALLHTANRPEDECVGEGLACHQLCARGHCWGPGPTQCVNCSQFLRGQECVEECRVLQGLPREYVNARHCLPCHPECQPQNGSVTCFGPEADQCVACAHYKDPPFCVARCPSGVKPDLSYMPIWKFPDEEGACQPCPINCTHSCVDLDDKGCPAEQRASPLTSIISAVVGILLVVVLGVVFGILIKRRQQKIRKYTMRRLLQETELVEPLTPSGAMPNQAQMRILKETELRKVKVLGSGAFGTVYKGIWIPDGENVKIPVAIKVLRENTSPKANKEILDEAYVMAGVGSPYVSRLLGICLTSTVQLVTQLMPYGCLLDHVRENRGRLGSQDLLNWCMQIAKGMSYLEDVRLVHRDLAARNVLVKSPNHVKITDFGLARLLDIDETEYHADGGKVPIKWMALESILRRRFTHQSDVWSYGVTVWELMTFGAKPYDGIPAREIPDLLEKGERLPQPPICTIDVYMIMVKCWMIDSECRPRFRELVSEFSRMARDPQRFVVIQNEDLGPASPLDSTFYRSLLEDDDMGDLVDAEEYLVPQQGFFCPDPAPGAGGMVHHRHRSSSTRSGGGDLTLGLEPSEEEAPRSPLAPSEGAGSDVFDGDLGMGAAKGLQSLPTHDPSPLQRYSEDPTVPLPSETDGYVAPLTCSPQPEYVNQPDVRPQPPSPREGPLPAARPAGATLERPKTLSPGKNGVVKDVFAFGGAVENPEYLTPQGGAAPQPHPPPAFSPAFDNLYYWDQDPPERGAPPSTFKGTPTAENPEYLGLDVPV

Compound: COc1cccc(Nc2ncnn3ccc(CN4CC[C@@H](N)[C@H](O)C4)c23)c1 [Compound I, (3R,4R)-4-amino-1-[[4-[(3-methoxyphenyl)amino]pyrrolo[2,1-f][1,2,4]triazin-5-yl]methyl]piperidin-3-ol]
- inhibition of HER1 (HER1): potent inhibitor
- inhibition of VEGFR2 (VEGFR2): potent inhibitor
- antiproliferative activity (various tumor cell lines): broad antiproliferative activity
- inhibition of HER2 (HER2): potent inhibitor
- anti-tumor efficacy [1]: excellent anti-tumor efficacy
- inhibition of HER4 (HER4): potent inhibitor

Compound: COc1cccc(Nc2ncnn3ccc(CN4CC[C@@H](N)[C@H](O)C4)c23)c1 [Form N-1, (3R,4R)-4-amino-1-[[4-[(3-methoxyphenyl)amino]pyrrolo[2,1-f][1,2,4]triazin-5-yl]methyl]piperidin-3-ol]
- solid form conversion after melting [2]: recrystallizes as Form N-2

Compound: COc1cccc(Nc2ncnn3ccc(CN4CC[C@@H](N)[C@H](O)C4)c23)c1 [Form N-2, (3R,4R)-4-amino-1-[[4-[(3-methoxyphenyl)amino]pyrrolo[2,1-f][1,2,4]triazin-5-yl]methyl]piperidin-3-ol]
- thermodynamic stability relative to other form [3]: more thermodynamically stable than Form N-1
- stability relationship from slurried mixtures of N-1 and N-2 [4]: monotropically more stable
